In assay [1] the test system is HDAC1, HDAC2, HDAC3 and HDAC6. Briefly: HDAC selectivity of the inhibitor panel. It is filed as biochemical. The note with it: HDAC isoform(s) the inhibitor is selective for. Here is the method:
Compounds for testing are diluted in DMSO to 50 fold the final concentration and a ten point three fold dilution series is made. The compounds are diluted in assay buffer (50 mM HEPES, pH 7.4, 100 mM Kill, 0.001% Tween-20, 0.05% BASE, 20 μM TEC) to 6 fold their final concentration. The HDAC enzymes (purchased from BPS Biosciences) are diluted to 1.5 fold their final concentration in assay buffer. The dipeptide substrate and trypsin at 0.05 μM final concentration are diluted in assay buffer at 6 fold their final concentration. The final enzyme concentrations to use in these assays are 3.3 ng/ml (HDAC1), 0.2 ng/ml (HDAC2), 0.08 ng/ml (HDAC3) and 2 ng/ml (HDAC6). The final substrate concentrations to use are 16 μM (HDAC1), 10 μM (HDAC2), 17 μM (HDAC3) and 14 μM (HDAC6). Five μ1 of compound and 20 μl of enzyme are added to wells of a black, opaque 384 well plate in duplicate. Enzyme and compound are incubated together at room temperature for 10 min. Five μ1 of substrate is added to each well, the plate is shaken for 60 seconds and placed into a Victor 2 microliter plate reader. The development of fluorescence is monitored for 60 min. and the linear rate of the reaction is calculated. The IC50 is determined using Graph Pad Prism by a four parameter curve fit.
The following HDAC inhibitors were used to evaluate the relationship between HDAC selectivity and the viability of AML cell lines upon exposure to the HDAC inhibitor: […]

Assay [2] has as its system Kasumi-1. As to the kind of experiment: Kasumi-1 cell cycle by propidium iodide staining (sub-G1). It is filed as cell-based. Particulars: 72 hours, increasing concentrations. Here is the method: HDAC inhibition causing AML cell death (apoptosis) was measured by staining the AML cells with propidium iodide after the cells were exposed to different concentrations of the HDAC inhibitors. Four distinct cell populations, G1, S, G2, and sub-G1, were separated and quantified based on their propidium iodide staining patterns. The sub-G1 cells are those dying or dead cells, and the percentage of this population was a reflection of the tested compound cytotoxicity.

The test system of assay [3] is HL-60, NB4, MV4-11, Kasumi-1, THP-1, and MOLM-13. As to the kind of experiment: Single agent activity on viability in AML cell lines. It counts as cell-based. Particulars: 72 hours, six AML cell lines. Here is the method:
FIGS. 3A-D show the single agent activity on viability in AML cell lines. Briefly, each of the following cell lines: HL-60, THP-1, MV-4-11, Kasumi-1, NB4, and MOLM-13 were exposed to increasing concentrations of either Compound B (FIG. 3A), Compound A (FIG. 3B), Compound E (FIG. 3C), or azacitidine (FIG. 3D) to determine their response to drug treatment. […] The panel of cell lines was also treated with azacitidine to measure their sensitivity.
FIGS. 8A-F show the single agent activity on viability in AML cell lines. […] Viability was calculated as a percentage of control (DMSO treated cells). Growth inhibition curves were generated using GraphPad Prism 6.
FIG. 17. […] (B-D) MV4-11 cells were treated with indicated concentrations of compounds. (B) Surface levels of myeloid differentiation marker CD11b were determined by FACS at 72 h post-treatment. […] (C) Cell cycle was assessed by flow cytometry after incorporation of EdU and staining with Far Red at 72 h post-treatment. The distribution of cells among G0/G1 phase, G2/M phase, S phase and subG1 phase was determined. […] (D) Apoptosis was assessed by flow cytometry via measuring Annexin V binding and cellular permeability to propidium iodide at 96 h post-treatment. The relative fraction of cells that were live, in early apoptosis, in late apoptosis or dead was then determined.

The subject of assay [4] is MV4-11. As to the kind of experiment: Apoptosis by Annexin V / propidium iodide flow cytometry in MV4-11. It is filed as cell-based. The note with it: single agent, 96 h. On the procedure: (§1) The distribution of cells among G0/G1 phase, G2/M phase, S phase and subG1 phase was determined. […] The relative fraction of cells that were live, in early apoptosis, in late apoptosis, or dead was then determined.
(§2) MV4-11 cells were treated with Compound E or with Compound A or with Compound B as single agent or in combination with azacitidine at indicated doses. FIGS. 12A, 12C, and 12E show surface levels of CD11b determined by FACS at 72 h post-treatment. FIGS. 12B, 12D, and 12F show assessment of apoptosis by FACS (as in, e.g., FIG. 9C) at 96 h post-treatment.
(§3) FIG. 17. […] (A) Indicated AML cell lines were exposed to increasing concentrations of Compound J to confirm their sensitivity to HDAC1/2 inhibition. (B-D) MV4-11 cells were treated with indicated concentrations of compounds. (B) Surface levels of myeloid differentiation marker CD11b were determined by FACS at 72 h post-treatment. […] (C) Cell cycle was assessed by flow cytometry after incorporation of EdU and staining with Far Red at 72 h post-treatment. The distribution of cells among G0/G1 phase, G2/M phase, S phase and subG1 phase was determined. […] (D) Apoptosis was assessed by flow cytometry via measuring Annexin V binding and cellular permeability to propidium iodide at 96 h post-treatment. The relative fraction of cells that were live, in early apoptosis, in late apoptosis or dead was then determined.
A general note: Flow cytometry measures light scatter and fluorescence of single cells or particles in a stream.

Assay [5] deals with MV4-11. As to the kind of experiment: Cell cycle by flow cytometry (EdU, Far Red) in MV4-11. It counts as cell-based. The note with it: single agent, 72 h. On the procedure: as §1, §3
Assay [6] relates to MV4-11. As to the kind of experiment: Surface CD11b by FACS in MV4-11. The note with it: single agent, 72 h. It is filed as cell-based. Here is the method: as §1, §2, §3
Assay [7] concerns AML1/ETO fusion protein. As to the kind of experiment: AML1/ETO fusion protein Western blot in Kasumi-1 cells. It is filed as cell-based. Particulars: 24 hours. Here is the method:
One type of AML has a signature chromosome translocation t(8:21) and therefore expression of a unique fusion protein AML1/ETO. […] In this study, Kasumi-1 cells were exposed to different concentrations of the HDAC inhibitor Compound A, or another HDAC1/2/6 selective inhibitor Compound G (data not shown), for 24 hours. The whole cell lysates were separated by SDS-PAGE (SDS-polyacrylamide gel electrophoresis) and transferred to a membrane (Western blot). The AML1/ETO fusion protein was detected on the membrane using an AML1 specific antibody.

Assay [8] deals with Kasumi-1. As to the kind of experiment: Surface CD11b by FACS in Kasumi-1. It counts as cell-based. Particulars: single agent, 72 hours. Here is the method: (§4) Briefly, the AML cell lines HL-60 (FIGS. 4A and 4D), Kasumi-1 (FIGS. 4B and 4E) and NB4 (FIGS. 4C and 4F) were treated with the indicated concentrations of compounds. In FIGS. 4A-C, surface levels of myeloid differentiation marker CD11b were determined by FACS at 72 hours post-treatment. […] In FIGS. 4D-F, apoptosis was assessed by flow cytometry by measuring Annexin V binding and cellular permeability to propidium iodide at 96 hours post-treatment. The relative fraction of cells that were alive, in early apoptosis, in late apoptosis, or dead was then determined.
Briefly, cells were treated with DMSO, Compound B, Compound A, or Compound E as a single agent or in combination with azacitidine at the indicated concentrations. Surface levels of CD11b were determined 72 hours post-treatment (FIGS. 6A, 6C, 6E), and apoptosis was assessed 96 hours post-treatment (FIGS. 6B, 6D, 6F).

Assay [9] has as its system GATA2. As to the kind of experiment: GATA2 expression in MV4-11 AML cell line. It counts as cell-based. Particulars: single agent at 1 uM, 48 h and 72 h. Here is the method:
FIG. 16. […] (A-B) MV4-11 cells were plated at 2×10^5 cells/ml at indicated doses for 48 h and 72 h. RNA was prepared and analyzed for GATA2 and GAPDH as internal control.

Assay [10] deals with MV4-11 cells. As to the kind of experiment: MV4-11 tumor growth and survival in Ncr nu/nu mice. It counts as in vivo. Particulars: single agent azacitidine 5 mg/kg IV q3d; MV4-11 in Ncr nu/nu mice. On the procedure: Ncr nu/nu mice implanted with MV4-11 cells were treated with vehicle, azacitidine (5 mg/kg IV q3d), or azacitidine (5 mg/kg IV q3d) plus Compound A (50 mg/kg IP 5/2/5/2/5/2/5) for up to 4 weeks. (A) Tumor volume was measured twice weekly and the mean tumor volume±SD is plotted. (B) Fold tumor volume change on day 19 relative to day 1 is plotted. (C) Survival curve was plotted.

For assay [11], the system named is AML blast freshly derived from bone marrow of AML patients. Briefly: Ex vivo proliferation of AML blast freshly derived from bone marrow. Particulars: Homo sapiens; 5 bone marrow samples from AML patients; flow cytometry at 96 h; single agent; read-out: median IC50, live AML cells. It is filed as cell-based. Here is the method:
(A-B), 5 bone marrow samples derived from AML patients were treated with increasing concentrations of azacitidine, Compound A and Compound J and live AML cells were quantified by flow cytometry at 96 h. IC50 values (A) and AUC values (B) were plotted. […] The relative potency of the three drugs are Compound J>azacitidine>Compound A, consistent with the result in FIG. 2. (C) 5 bone marrow samples derived from AML patients were treated with increasing doses of azacitidine with Compound J and live AML cells were quantified by flow cytometry at 96 h. The combination index (Comb IDX) were calculated and median Comb IDX values were plotted.

The test system of assay [12] is HL-60. Briefly: Surface CD11b by FACS in HL-60. It counts as cell-based. Particulars: single agent, 72 hours. Here is the method: as §4
FIGS. 5A-F show the combination of HDAC inhibitors and azacitidine in the HL-60 cell line. Briefly, cells were treated with DMSO, Compound B, Compound A, or Compound E as a single agent or in combination with azacitidine for 96 hours. Surface levels of CD11b (FIGS. 5A, 5C, 5E) and apoptosis (FIGS. 5B, 5D, 5F) was assessed by flow cytometry, as in FIG. 4.

For assay [13], the system named is HL-60, Kasumi-1 and NB4. Briefly: Apoptosis by Annexin V / propidium iodide flow cytometry in three AML cell lines. It counts as cell-based. The note with it: single agent; 96 hours; HL-60, Kasumi-1, NB4. Here is the method: as §4
FIGS. 10A-F show the treatment of the following AML cell lines: Kasumi-1 (FIGS. 10A and 10B), HL-60 (FIGS. 10C and 10D) and NB4 (FIGS. 10E and 10F), with indicated doses of compounds. FIGS. 10A, 10C, and 10E show surface levels of myeloid differentiation marker CD11b determined by FACS at 72 h post-treatment. […] FIGS. 10B, 10D, and 10F show the assessment of apoptosis by FACS (see, e.g., FIG. 9C).

Assay [14] deals with bone marrow samples derived from AML patients. As to the kind of experiment: Primary AML sample colony formation assay. It is filed as cell-based. The note with it: Homo sapiens, 336 h; 6 bone marrow samples from AML patients; 14 days; single agent; read-out: median IC50, colony formation. Here is the method: (A) 6 bone marrow samples derived from AML patients were cultured in methylcellulose-based medium and treated with increasing concentrations of Compound A, Compound J and azacitidine for 14 days when the colonies reach reasonable size. IC50 values for each drug are plotted. […] IC50 values were plotted for each patient sample.

In assay [15] the test system is NB4. Briefly: Surface CD11b by FACS in NB4. The note with it: single agent, 72 hours. It is filed as cell-based. On the procedure:
as §4
FIGS. 7A-F show the combination of HDAC inhibitors and azacitidine in the NB4 cell line. Briefly, cells were treated with DMSO, Compound B, Compound A, or Compound E as single agent or in combination with azacitidine at the indicated concentrations. Surface levels of CD11b were determined 72 hours post-treatment (FIGS. 7A, 7C, 7E), and apoptosis was assessed 96 hours post-treatment (FIGS. 7B, 7D, 7F).

Consider `O=C(NO)c1cnc(NC2(c3ccccc3)CCN(C(=O)Nc3ccccc3)CC2)nc1` [Compound G, N-hydroxy-2-((4-phenyl-1-(phenylcarbamoyl)piperidin-4-yl)amino)pyrimidine-5-carboxamide], for which the Selectivity entry in assay [1] is given as “HDAC6 (1/2)”. The “sub-G1 cells (dying or dead cells)” value in assay [2] was “Increased amount of sub-G1 cells”. Further, the “viability IC50 relative to HDAC selective range” value in [3] is on record as “has some inhibitory effects on HDAC1/2 at their IC50 values”. Besides, in [4], the “apoptosis relative to control cells” value is listed as “increase in apoptosis relative to control cells”. The cell cycle arrest result in assay [5] is “induced cell cycle arrest”. Further, the “percentage of CD11b positive cells” value in assay [6] is listed as “increased the percentage of CD11b positive cells”. In assay [7], the “amount of AML1/ETO fusion protein” value was “decrease the amount of this fusion protein in a concentration dependent manner”.

For the compound `Nc1ncn([C@@H]2O[C@H](CO)[C@@H](O)[C@H]2O)c(=O)n1` [azacitidine, 4-amino-1-β-D-ribofuranosyl-S-triazin-2(1H)-one, reference compound], the CD11b positive cells result in [8] is listed as “increased CD11b positive cells”; in assay [12] it was “increased CD11b positive cells”; in assay [15] it was “minimal effects”. Also, the GATA2 level result in [9] is “induced GATA2 level”. In addition, the survival result in [10] is reported as “increased survival”. The tumor growth entry in assay [10] is given as “reduced tumor growth”. For the same compound, the IC50 came out at 2.1 µM in assay [11] and 8.11 µM in [14]. For the same compound, the “apoptosis relative to control cells” value in assay [13] was “increase in apoptosis relative to control cells”.

As a reminder, the IC50 is the concentration that inhibits the measured activity by half.

These data come from US9833466B2, “Treatment of leukemia with histone deacetylase inhibitors” (Acetylon Pharmaceuticals Inc., priority 2014, dated 2017).
